Data: patent US20180057507A1, “INHIBITORS OF DUAL LEUCINE ZIPPER (DLK) KINASE FOR THE TREATMENT OF DISEASE” (Board of Regents, The University of Texas System, priority 2016, published 2018)

Key:
human DLK [1] = target: T1, human DLK (Homo sapiens, UniProt Q12852); test: Phospho-cJun Cellular Assay; format: cell-based; design: expressed in transfected cells; details: HEK293 cells stably transfected with Dox-inducible human DLK; p-cJun (Ser63); 5 h compound incubation
T1 sequence (Q12852 1-859): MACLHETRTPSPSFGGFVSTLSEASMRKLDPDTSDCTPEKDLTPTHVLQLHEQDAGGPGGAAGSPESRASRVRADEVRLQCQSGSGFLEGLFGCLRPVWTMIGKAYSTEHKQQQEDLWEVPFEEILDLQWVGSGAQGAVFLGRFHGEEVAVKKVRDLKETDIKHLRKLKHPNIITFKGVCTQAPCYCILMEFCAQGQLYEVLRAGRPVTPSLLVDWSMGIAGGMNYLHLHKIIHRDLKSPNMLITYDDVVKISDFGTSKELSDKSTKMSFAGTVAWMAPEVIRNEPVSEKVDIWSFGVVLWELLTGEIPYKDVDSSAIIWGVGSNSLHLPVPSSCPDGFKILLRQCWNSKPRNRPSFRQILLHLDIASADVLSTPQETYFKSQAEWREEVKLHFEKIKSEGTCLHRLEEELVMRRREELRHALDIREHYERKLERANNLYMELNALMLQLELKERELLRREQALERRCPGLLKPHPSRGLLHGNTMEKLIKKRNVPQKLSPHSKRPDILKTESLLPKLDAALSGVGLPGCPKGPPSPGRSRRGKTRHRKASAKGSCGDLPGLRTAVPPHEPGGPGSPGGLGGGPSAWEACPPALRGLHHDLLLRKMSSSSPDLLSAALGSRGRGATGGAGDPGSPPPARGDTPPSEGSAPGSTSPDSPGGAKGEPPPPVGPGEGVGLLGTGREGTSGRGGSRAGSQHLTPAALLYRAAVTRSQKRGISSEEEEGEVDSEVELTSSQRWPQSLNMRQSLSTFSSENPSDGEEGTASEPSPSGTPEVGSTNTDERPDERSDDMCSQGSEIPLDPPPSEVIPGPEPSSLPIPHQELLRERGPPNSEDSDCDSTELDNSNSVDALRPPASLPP
Summary of the method: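 HEK293 cells with doxycycline-induced human DLK (induced 20 h; uninduced cells as negative control) treated with compound for 5 h at 37 °C. Phospho-cJun (Ser63) measured in lysates with detection-antibody kit; IC50 from variable-slope dose-response fit.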

human DLK [2] = target: T1, human DLK; test: DLK Kd Determinations (KINOMEscan KdELECT, DiscoveRx); design: full length of human DLK (amino acids 1-859); host or cells: transiently transfected HEK293 cells; unpurified extract; details: fusion protein of full length human DLK (amino acids 1-859) and NFkB DNA binding domain; qPCR readout; duplicate
Summary of the method: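 Kd values were fitted by Hill equation (slope −1) from duplicate 11-point 3-fold dilutions starting at 30,000 nM. Bead-immobilized ligand competed with compound for DNA-tagged full-length human DLK fusion in HEK293 extract (final DMSO 0.9%, 1 h, room temperature), with qPCR readout of bound kinase.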

IC50 (human DLK [1]) [nM] | Kd (human DLK [2]) [nM] | SMILES
6190 | 340 | CC(C)c1nc(-c2cnc(N)c(C(F)(F)F)c2)cn1[C@H]1C[C@@H](N2CCCOCC2)C1 [Example 45, 5-(1-((1s,3s)-3-(1,4-oxazepan-4-yl)cyclobutyl)-2-isopropyl-1H-imidazol-4-yl)-3-(trifluoromethyl)pyridin-2-amine]
802 | 57 | Nc1ncc(-c2cn([C@H]3[C@@H]4CNC[C@@H]43)c(C3CC3)n2)cc1OC(F)(F)F [Example 53, 5-(1-((1R,5S,6s)-3-azabicyclo[3.1.0]hexan-6-yl)-2-cyclopropyl-1H-imidazol-4-yl)-3-(trifluoromethoxy)pyridin-2-amine]
1050 | 32 | Nc1ncc(-c2cn([C@H]3[C@@H]4CN(C5COC5)C[C@@H]43)c(C3CC3)n2)cc1OC(F)(F)F [Example 65, 5-(2-cyclopropyl-1-((1R,5S,6s)-3-(oxetan-3-yl)-3-azabicyclo[3.1.0]hexan-6-yl)-1H-imidazol-4-yl)-3-(trifluoromethoxy)pyridin-2-amine]
827 | 59 | Nc1ncc(-c2cn([C@H]3[C@@H]4CN(C5CCOCC5)C[C@@H]43)c(C3CC3)n2)cc1OC(F)(F)F [Example 66, 5-(2-cyclopropyl-1-((1R,5S,6s)-3-(tetrahydro-2H-pyran-4-yl)-3-azabicyclo[3.1.0]hexan-6-yl)-1H-imidazol-4-yl)-3-(trifluoromethoxy)pyridin-2-amine]
745 | 77 | COCCN1C[C@@H]2[C@H](C1)[C@H]2n1cc(-c2cnc(N)c(OC(F)(F)F)c2)nc1C1CC1 [Example 68, 5-(2-cyclopropyl-1-((1R,5S,6s)-3-(2-methoxyethyl)-3-azabicyclo[3.1.0]hexan-6-yl)-1H-imidazol-4-yl)-3-(trifluoromethoxy)pyridin-2-amine]
2440 | 45 | Nc1ncc(-c2cn([C@H]3[C@@H]4CN(CCF)C[C@@H]43)c(C3CC3)n2)cc1OC(F)(F)F [Example 69, 5-(2-cyclopropyl-1-((1R,5S,6s)-3-(2-fluoroethyl)-3-azabicyclo[3.1.0]hexan-6-yl)-1H-imidazol-4-yl)-3-(trifluoromethoxy)pyridin-2-amine]
2690 | 69 | CC(=O)N1C[C@@H]2[C@H](C1)[C@H]2n1cc(-c2cnc(N)c(C(F)(F)F)c2)nc1C1CC1 [Example 72, 1-((1R,5S,6s)-6-(4-(6-amino-5-(trifluoromethyl)pyridin-3-yl)-2-cyclopropyl-1H-imidazol-1-yl)-3-azabicyclo[3.1.0]hexan-3-yl)ethan-1-one]
1200 | 56 | Nc1ncc(-c2cn([C@H]3[C@@H]4CN(C5COC5)C[C@@H]43)c(C3CC3)n2)cc1C(F)(F)F [Example 73, 5-(2-cyclopropyl-1-((1R,5S,6s)-3-(oxetan-3-yl)-3-azabicyclo[3.1.0]hexan-6-yl)-1H-imidazol-4-yl)-3-(trifluoromethyl)pyridin-2-amine]
1350 | 54 | Nc1ncc(-c2cn([C@H]3[C@@H]4CN(C5CCOCC5)C[C@@H]43)c(C3CC3)n2)cc1C(F)(F)F [Example 74, 5-(2-cyclopropyl-1-((1R,5S,6s)-3-(tetrahydro-2H-pyran-4-yl)-3-azabicyclo[3.1.0]hexan-6-yl)-1H-imidazol-4-yl)-3-(trifluoromethyl)pyridin-2-amine]
760 | 51 | Nc1ncc(-c2cn([C@H]3[C@@H]4CN(C5CCOCC5)C[C@@H]43)c(CC3CC3)n2)cc1C(F)(F)F [Example 76, 5-(2-(cyclopropylmethyl)-1-((1R,5S,6s)-3-(tetrahydro-2H-pyran-4-yl)-3-azabicyclo[3.1.0]hexan-6-yl)-1H-imidazol-4-yl)-3-(trifluoromethyl)pyridin-2-amine]
1490 | 17 | Nc1ncc(-c2cn([C@H]3[C@@H]4CN(CCF)C[C@@H]43)c(CC3CC3)n2)cc1C(F)(F)F [Example 77, 5-(2-(cyclopropylmethyl)-1-((1R,5S,6s)-3-(2-fluoroethyl)-3-azabicyclo[3.1.0]hexan-6-yl)-1H-imidazol-4-yl)-3-(trifluoromethyl)pyridin-2-amine]
781 | 64 | COCCN1C[C@@H]2[C@H](C1)[C@H]2n1cc(-c2cnc(N)c(C(F)(F)F)c2)nc1CC1CC1 [Example 78, 5-(2-(cyclopropylmethyl)-1-((1R,5S,6s)-3-(2-methoxyethyl)-3-azabicyclo[3.1.0]hexan-6-yl)-1H-imidazol-4-yl)-3-(trifluoromethyl)pyridin-2-amine]
1670 | 42 | CC(C)c1nc(-c2cnc(N)c(OC(F)(F)F)c2)cn1[C@H]1[C@@H]2CN(C3COC3)C[C@@H]21 [Example 80, 5-(2-isopropyl-1-((1R,5S,6s)-3-(oxetan-3-yl)-3-azabicyclo[3.1.0]hexan-6-yl)-1H-imidazol-4-yl)-3-(trifluoromethoxy)pyridin-2-amine]
1510 | 99 | CC(C)c1nc(-c2cnc(N)c(OC(F)(F)F)c2)cn1[C@H]1[C@@H]2CN(C3CCOCC3)C[C@@H]21 [Example 81, 5-(2-isopropyl-1-((1R,5S,6s)-3-(tetrahydro-2H-pyran-4-yl)-3-azabicyclo[3.1.0]hexan-6-yl)-1H-imidazol-4-yl)-3-(trifluoromethoxy)pyridin-2-amine]
3550 | 160 | CC(C)c1nc(-c2cnc(N)c(OC(F)F)c2)cn1[C@H]1[C@@H]2CN(C3COC3)C[C@@H]21 [Example 83, 3-(difluoromethoxy)-5-(2-isopropyl-1-((1R,5S,6s)-3-(oxetan-3-yl)-3-azabicyclo[3.1.0]hexan-6-yl)-1H-imidazol-4-yl)pyridin-2-amine]
1610 | 160 | CCCc1nc(-c2cnc(N)c(C(F)(F)F)c2)cn1[C@H]1[C@@H]2CN(CCF)C[C@@H]21 [Example 84, 5-(1-((1R,5S,6s)-3-(2-fluoroethyl)-3-azabicyclo[3.1.0]hexan-6-yl)-2-propyl-1H-imidazol-4-yl)-3-(trifluoromethyl)pyridin-2-amine]
594 | 60 | CC(C)(C)Cc1nc(-c2cnc(N)c(C(F)(F)F)c2)cn1[C@H]1[C@@H]2CN(CCF)C[C@@H]21 [Example 85, 5-(1-((1R,5S,6s)-3-(2-fluoroethyl)-3-azabicyclo[3.1.0]hexan-6-yl)-2-neopentyl-1H-imidazol-4-yl)-3-(trifluoromethyl)pyridin-2-amine]
994 | 71 | Nc1ncc(-c2cn([C@H]3[C@@H]4CN(C5CCOCC5)C[C@@H]43)c(CC3CC3)n2)cc1OC(F)F [Example 88, 5-(2-(cyclopropylmethyl)-1-((1R,5S,6s)-3-(tetrahydro-2H-pyran-4-yl)-3-azabicyclo[3.1.0]hexan-6-yl)-1H-imidazol-4-yl)-3-(difluoromethoxy)pyridin-2-amine]
1120 | 40 | Nc1ncc(-c2cn([C@H]3[C@@H]4CNC[C@@H]43)c(CC3CC3)n2)cc1OC(F)(F)F [Example 90, 5-(1-((1R,5S,6s)-3-azabicyclo[3.1.0]hexan-6-yl)-2-(cyclopropylmethyl)-1H-imidazol-4-yl)-3-(trifluoromethoxy)pyridin-2-amine]
